# Tests used:
# [1] = tested on: Xenografts of a Human Breast Carcinoma Cell Line (MDA-MB-361); assay: Tumor xenograft study versus Herceptin (Table 2); assay type: in vivo; conditions: 40 mg/kg/dose PO, days 1 through 20
# Experimental: (§1) Selected fused bicyclic 2-aryl- or 2-heteroarylthiazolyl compounds of formula I were tested for their activity in a securin parental cell line (HCT116 FB) and a securin knockout (KO) cell line. […] The in-vivo activity of selected fused bicyclic 2-aryl- or 2-heteroarylthiazolyl compounds of formula I was studied in cells growing as xenografts in athymic (nude) mice. The effect of Examples 164, 166 and 167 was studied in xenografts of a human breast carcinoma cell line (MDA-MB-361).
# (§2) In-vivo Activity in Tumor Xenografts. […] The fused bicyclic 2-arylthiazolyl compounds were formulated using 0.5% Methocel™ (methylcellulose) and 0.4% Tween 80™ (polysorbate-80 and oleic acid) and administered daily orally (PO), by gavage or by syringe. Tumor mass [(length×width^2)/2] was determined every 7 days. Inhibition of tumor growth was calculated relative to conventional (vehicle treated) controls.
# [2] = tested on: Xenografts of a Human Breast Carcinoma Cell Line (MDA-MB-361); assay: Tumor xenograft study versus Vincristine (Table 3); assay type: in vivo
# Experimental: as §1, §2
# The effectiveness of Examples 164, 166 and 167 versus Vincristine at controlling tumor growth was studied and the results are summarized in Table 3 and FIG. 2.
# [3] = 100 mg/kg/dose PO, BID, days 2 through 21
# [4] = 100 mg/kg/dose PO, BID, days 2 through 21, BID vehicle group listed
# [5] = 150 mg/kg/dose PO, days 2 through 21
# [6] = 0.8 mg/kg/dose IP, days 2, 5 and 10
structure (smiles),measurement,setting,value
CCOc1cc2ncc(C#N)c(Nc3ccc(F)c(Cl)c3)c2cc1NC(=O)/C=C/CN(C)C [EKB-569],% T/C Day 7,[1],66%
same,% T/C Day 14,[1],80%
same,% T/C Day 21,[1],78%
same,Relative Tumor Growth Day 7,[1],1.28
same,Relative Tumor Growth Day 14,[1],2.57
same,Relative Tumor Growth Day 21,[1],8.24
same,S/T = # of Survivors/# of Treated on Day +21,[1],10/10
COc1cc(Nc2c(C#N)cnc3cc(OCCCN4CCN(C)CC4)c(OC)cc23)c(Cl)cc1Cl [SKI-606 20],Relative Tumor Growth Day 8,[2]; [3],1.97
same,Relative Tumor Growth Day 15,[2]; [3],2.44
same,Relative Tumor Growth Day 22,[2]; [3],3.91
same,Relative Tumor Growth Day 29,[2]; [3],5.73
same,Relative Tumor Growth Day 36,[2]; [3],10.26
same,S/T = # of Survivors/# of Treated on Day +36,[2]; [3],8/10
same,% T/C Day 8,[2]; [4],52%
same,% T/C Day 15,[2]; [4],27%
same,% T/C Day 22,[2]; [4],18%
same,% T/C Day 8,[2]; [5],40%
same,% T/C Day 15,[2]; [5],22%
same,% T/C Day 22,[2]; [5],16%
same,Relative Tumor Growth Day 8,[2]; [5],2.09
same,Relative Tumor Growth Day 15,[2]; [5],2.77
same,Relative Tumor Growth Day 22,[2]; [5],3.62
same,Relative Tumor Growth Day 29,[2]; [5],7.22
same,Relative Tumor Growth Day 36,[2]; [5],10.19
same,S/T = # of Survivors/# of Treated on Day +36,[2]; [5],10/10
"CCOc1cc2ncc(C#N)c(Nc3ccc(OCc4ccccn4)c(Cl)c3)c2cc1NC(=O)/C=C/CN(C)C [HKI-272, reference compound]",% T/C Day 7,[1],62%
same,% T/C Day 14,[1],89%
same,% T/C Day 21,[1],76%
same,Relative Tumor Growth Day 7,[1],1.19
same,Relative Tumor Growth Day 14,[1],2.86
same,Relative Tumor Growth Day 21,[1],8.03
same,S/T = # of Survivors/# of Treated on Day +21,[1],10/10
"CC[C@]1(O)C[C@H]2CN(CCc3c([nH]c4ccccc34)[C@@](C(=O)OC)(c3cc4c(cc3OC)N(C=O)[C@H]3[C@@](O)(C(=O)OC)[C@H](OC(C)=O)[C@]5(CC)C=CCN6CC[C@]43[C@@H]65)C2)C1 [Vincristine, reference compound]",% T/C Day 8,[2]; [6],33%
same,% T/C Day 15,[2]; [6],23%
same,% T/C Day 22,[2]; [6],30%
same,Relative Tumor Growth Day 8,[2]; [6],1.75
same,Relative Tumor Growth Day 15,[2]; [6],2.84
same,Relative Tumor Growth Day 22,[2]; [6],6.71
same,Relative Tumor Growth Day 29,[2]; [6],11.47
